Reference: patent US8865653B2, “Method of treatment for immunogenic treatment resistant cancer” (Institut Gustave Roussy, priority 2010, dated 2014)

Tests used:
MCA205 tumors = test: Gene expression assays in tumors (TaqMan RT-PCR) 8 days after DX; type: in vivo, mice; conditions: 8 days post-treatment, quantitative RT-PCR
Procedure: Whole RNA was extracted using RNeasy Mini Kit, QIAGEN from pieces of tumor homogenates. 5 μg of RNA from each sample were reverse-transcribed using Quantitect Reverse Transcription Kit (QIAGEN). Gene expression assays were performed with TaqMan® 96 well Plates customized to test cytokines, chemokines as well as transcription factors using StepOnePlus™ Real-Time PCR System. PPIA was chosen as the endogenous control to perform normalization between different samples.

[1] = test system: tumor infiltrating lymphocytes (TILs) of MCA205 tumors; test: Tumor dissection and flow cytometry of TILs (IFN-γ, IL-17); type: in vivo, mice
Procedure: Tumor burdens were carefully removed, cut into small pieces with scissors within digesting buffer (400 U/ml Collagenase IV and 150 U/ml DNase I in RPMI1640) and incubated for 30 min at 37° C. Single cell suspension was obtained by grinding the digested tissue and filtering through 70 μM cell strainer. […] LIVE/DEAD Fixable Dead Cell Stain Kit was used to distinguish live and dead cells. For intracellular staining, freshly isolated cells were treated with, 50 ng/ml PMA, 1 μg/ml ionomycin and Golgi-stop (BD Pharmingen), 4 hrs, 37° C. in RPMI containing 2% mouse serum (Janvier, France). Cells were then washed with PBS and stained with anti-IFN-γ (PE-cy7) and anti-IL-17 (PE) using BD Cytofix/Cytoperm™ Kit following the instructions.

CT26 colon cancer = test: Anthracycline chemotherapy of established CT26 colon cancer; type: in vivo, mice; conditions: single intratumoral injection
Procedure: 0.8 million MCA205 or CT26 or TS/A tumor cells were inoculated subcutaneously near the thigh into C57Bl/6 (H-2^b) or BALB/c (H-2^d) mice. Anthracyclines-based chemotherapy was performed in MCA205 and CT26 models by intratumoral injecting DX (2 mM, […]) when tumors reached the size 25-40 mm^2. Radiotherapy was performed by local X-ray irradiation (10 Gy, RT250, Phillips) at the unshielded tumor area when TS/A tumor reached the size 40-60 mm^2.

MCA 205 tumors = test: qRT-PCR of tumor gene expression after Doxorubicin; type: in vivo, mice; conditions: 2 days after treatment; Mavs, Irf3, Irf1 and Tnf unchanged
Procedure: 0.8 Million of MCA 205 has been subcutaneously implanted to C57Bl6 mice.
Tumor samples were freshly collected, briefly washed in RPMI1640 media (GIBCO). Tissue samples were cut to a maximum thickness in any one dimension of 0.5 cm, placed in 5 volumes of RNAlater® (SIGMA ALDRICH). Samples can be stored at room temperature if processed for RNA extraction on the same day or stored at 4° C. for less than 1 month. RNA extraction from each tumor (up to 30 mg/sample) was performed using RNeasy Mini Kit (QIAGEN) following the instructions.
Add 20 μL1 of Master mix (dN6 (3 ng/μl), dNTP (1 mM), Buffer (1×), RNAsin (40 U) Superscript® III RT (200 U)) into the processed mRNA sample. Mix was incubated at 50° C. for 1 h and then inactivated at 75° C. for 15 min.
cDNA of each sample was diluted at 1:3 with DNase free water. For each sample, 4 μl of primer and probe TAQMAN (2×), 10 μl of assay mix (20×), 5 μl diluted cDNA were added. qRT-PCR was performed (45 cycles with standard PCR program using StepOnePlus™ system (Applied Biosystems). PPIA was used as endogenous control gene to normalize gene expression for data analysis.

MCA205 fibrosarcoma = test: Chemotherapy and Dendrophilin treatment of established MCA205 tumors; type: in vivo, mice; conditions: doxorubicin intratumorally
Procedure: (§1) WT or loss-of-function mice were injected in the right flank with 1×10^6 of EL4 or CT26 or MCA205 cells. Mice were then randomly assigned into treatment groups of 4-6 mice each. […] Two and/or four days after chemo treatment, mice were treated with Dendrophilin or LPS (2 μg in 100 μl NaCl per mouse i.v or i.t). […] Tumor growths were monitored every 3-4 days using a caliper.

U2OS cells [2] = test: US Drug library screen: CRT-GFP, HMGB1-GFP, quinacrine; conditions: 1 μM, 4 h / 24 h / 16 h
[3] = test system: U2OS cells stably expressing CRT-GFP; test: CRT-GFP redistribution (granularity, nuclear shape) by automated microscopy; ICCB library screen; type: cell-based, human; conditions: 1 μM MTX, 150 μM CDDP, 300 μM OXP
Procedure: The data is depicted as mean±s.e.m. of quadruplicates from a representative experiment. (C) Immunofluorescene was conducted on CRT-GFP expressing cells by means of staining with anti-CRT antibody and subsequent confocal image acquisition. (D) CRT has been cloned in frame n-terminal to a HaloTag® sequence followed by a KDEL ER retention signal. (E) The impermeable HaloTag® ligand forms covalent bonds exclusively with surface exposed HaloTag®-CRT fusion protein, whereas intracellular HaloTag®-CRT remains undetected.
Compounds from the ICCB known bioactive compounds library have been tested for their capacity to induce CRT-exposure. […] The cells were incubated for 4 h and were acquired by means of automated microscopy. The data is depicted as dot plots and representative images (B).
After washing with PBS 4 viewfields per well were acquired by means of a BD pathway 855 automated microscope.

U2OS cells [4] = type: cell-based
Procedure: The data is depicted as representative images (A) and (B) normalized Bax-GFP granularity values.
The data represents mean±s.e.m. of quadruplicates from a representative experiment. […] 16 h after treatment, cell death was monitored by simultaneous staining with 3,3 dihexyloxacarbocyanine iodide (DiOC6(3)) and propidium iodide (PI), and the percentage of dying (DiOC6(3)^low PI^−, open bars) and dead (DiOC6(3)^low PI^+, closed bars) cells was determined by cytofluorometry.
Cell death was quantified by cytofluorometric analysis using a FACS Vantage (Becton Dickinson, Mountain View, USA) as described previously (REF). Thus, cells were stained with 40 nM 3,3 dihexyloxacarbocyanine iodide (DiOC6(3); Molecular Probes, Eugene, Oreg., USA) for 30 min at 37° C. and concomitantly with 1 μg/ml propidium iodide (PI; Sigma Aldrich) for 30 min at 37° C. to determine the mitochondrial transmembrane potential. Data were statistically evaluated using CellQuest Pro software (Becton Dickinson, Mountain View, USA).

U2OS cells [5] = test: ATP release assays (quinacrine, luciferin-based); type: cell-based, human; conditions: 16 h post-treatment, intracellular and extracellular ATP
Procedure: In short, cells were labeled with 1 μM quinacrine in Krebs-Ringer solution (125 mM NaCl, 5 mM KCl, 1 mM MgSO4, 0.7 mM KH2PO4, 2 mM CaCl2, 6 mM glucose and 25 mM Hepes, pH 7.4) for 30 min at 37° C.
After incubation in quinacrine solution (as described above), cells were rinsed and resuspended in PBS containing 1 μg/ml PI. The samples were analyzed by means of a FACS Vantage (Becton Dickinson) and the data was statistically evaluated using the CellQuest Pro software (BD Biosciences).
After cell death induction, extracellular ATP was measured by luciferin-based ENLITEN ATP Assay (Promega, Madison, USA) following the manufacturer's instructions. Intracellular ATP was measured using an ATP Assay kit (Calbiochem, Darmstadt, Germany) based on luciferin-luciferase conversion following the manufacturer's instructions. For assessment of the chemoluminescent signal, the plates were read in a Fluostar luminometer (BMG Labtech).

eIF2α = test: Immunoblotting of eIF2α / PERK phosphorylation; type: cell-based
Excerpt: (E) The phosphorylation status of eIF2α has been assessed by immunoblotting against the phosphoneoepitope Ser51 of eIF2α by means of a monoclonal antibody. A polyclonal antibody has been used to visualize whole eIF2α protein levels.

[6] = test system: CT26 overexpressing LC3-GFP; test: Induction of autophagy in vivo, LC3-GFP redistribution; parameters: species or system mice; conditions: i.v., tumors withdrawn 48 hours post-therapy
Procedure: After 8 days of tumor implantation (CT26 mouse colon cancer genetically modified to overexpress LC3-GFP in BALB/c immunocompetent mice), oxaliplatin or mitoxanthrone was inoculated systemically (i.v.). Tumors were withdrawn at 48 hours post-therapy and immunofluorescence stainings were performed on frozen sections of tumor tissues to visualize nuclei (in Hoechst blue), and autophagosomes in green (LC3-GFP). […] The lower panel is a graph summarizing enumeration of autophagosomes positive cells in 10 independent sections per tumor and animal (each dot represents one tumor). Statistical analyses were performed with Anova test (Fisher's exact method) with significant results at p<0.05.

EL4 thymoma = test: Chemotherapy and Dendrophilin treatment of established EL4 tumors; type: in vivo, mice; conditions: oxaliplatin 5 mg per kg i.p.
Procedure: as §1

MCA205 cells = test: In vivo anti-tumor vaccination with treated MCA205 cells (Example 3); conditions: s.c. injection, rechallenge with live tumor cells
Procedure: (F) MCA205 cells have been used for tumor vaccination in vivo. […] The mice have been rechallenged after 6 days with living cells and the tumor growth is depicted in the survival plot (n=10).
Tumor growth was evaluated for at least 50 days.

U2OS cells [7] = test: Analysis of surface exposed CRT (HaloTag ligand, anti-CRT immune staining)

| SMILES | Eomes, Tbx21 (T-bet) and IFN-γ expression increase, DX versus PBS-treated tumors (MCA205 tumors) | increase in the proportions of IFN-γ and IL-17 producing TILs ([1]; DX compared with PBS, flow cytometry, day 8) | IFN-γ production by CD8+ and CD4+ TILs and IL-17 production by γδ TILs ([1]; MCA205, post-chemotherapy) | tumor growth (CT26 colon cancer) | genes involved in viral recognition and anti-viral immune responses, RT-PCR (MCA 205 tumors) | antitumor effects of chemotherapy alone (MCA205 fibrosarcoma) | rank in screen for exposing CRT and emitting HMGB1 and ATP (U2OS cells [2]) | CRT-GFP granularity (relocation to peripheral granular distribution) [3] | IC50 (U2OS cells [4]; short-term experiments, loss of the mitochondrial transmembrane potential ΔΨm, read-out: IC50, imminent cell death) | mitochondrial perturbations (ΔΨm dissipation, Bax-GFP relocation) (U2OS cells [4]; used at their IC50) | ATP release (U2OS cells [5]) | eIF2α phosphorylation on serine 51 (eIF2α; phospho-neoepitope-specific antibody) | activating phosphorylation of PERK (eIF2α; shortly after treatment) | redistribution of LC3-GFP in autophagosomes in tumors [6] | antitumor effects of chemotherapy alone (EL4 thymoma) | protective anticancer immune response after vaccination with drug-treated MCA205 cells (MCA205 cells) | surface exposure of CRT-HaloTag (U2OS cells [7]; cell-impermeable HaloTag ligand, microscopy and cytofluorometry) | surface immunofluorescence staining of CRT (U2OS cells [7]; non-permeabilized CRT-GFP cells) |
| --- | --- | --- | --- | --- | --- | --- | --- | --- | --- | --- | --- | --- | --- | --- | --- | --- | --- | --- |
| COc1cccc2c1C(=O)c1c(O)c3c(c(O)c1C2=O)C[C@@](O)(C(=O)CO)C[C@@H]3O[C@H]1C[C@H](N)[C@H](O)[C@H](C)O1 [DX, doxorubicin] | 4-5 fold | 3 fold | substantially enhanced | significantly retarded tumor growth | specifically up-regulated | only mild effects | most potent in exposing CRT, and emitting HMGB1 and ATP |  |  |  |  |  |  |  |  |  |  |  |
| O=C1[O][Pt]2([NH][C@@H]3CCCC[C@H]3[NH]2)[O]C1=O [OXP, oxaliplatin] |  |  |  |  |  |  |  | only observed after treatment of the cells with MTX or OXP | ~600 µM | induced similar mitochondrial perturbations | induced ATP release | much more efficient than CDDP | detectable shortly after treatment with OXP | Redistribution of LC3-GFP in autophagosomes can be visualized post-therapy | only mild effects | readily induce such a tumor-protective response | unless they were treated with immunogenic cell death inducers such as OXP | actually extruded CRT |
